From ChEMBL document CHEMBL3885881, “DrugMatrix”

Species: Rattus norvegicus
Experiment: DrugMatrix - Regimen: Daily Repeat
Format: toxicity, organism-based, Sprague-Dawley
Set-up: regimen Daily Repeat, gender Male, age 6-8 weeks
Conditions: in vivo, po, route oral GAVAGE, vehicle .5 % CMC; for ABSOLUTE BASOPHIL / ABSOLUTE EOSINOPHIL / ABSOLUTE LYMPHOCYTE / ABSOLUTE MONOCYTE / ABSOLUTE SEGMENTED NEUTROPHIL / BASOPHIL / EOSINOPHIL / ERYTHROCYTE COUNT / HEMATOCRIT / HEMOGLOBIN / LEUKOCYTE COUNT / LYMPHOCYTE / MEAN CORPUSCULAR HEMOGLOBIN / MEAN CORPUSCULAR HEMOGLOBIN CONCENTRATION / MEAN CORPUSCULAR VOLUME / MONOCYTE / NEUTROPHIL / NUCLEATED RED BLOOD CELLS / PLATELET COUNT: tissue Blood; for ALANINE AMINOTRANSFERASE / ALBUMIN / ALKALINE PHOSPHATASE / ASPARTATE AMINOTRANSFERASE / BLOOD UREA NITROGEN / CARBON DIOXIDE / CHLORIDE / CHOLESTEROL / CREATINE PHOSPHOKINASE / CREATININE / GLUCOSE / LACTATE DEHYDROGENASE / LIPASE / PHOSPHORUS / POTASSIUM / SODIUM / TOTAL BILIRUBIN / TOTAL PROTEIN / URIC ACID: tissue Plasma
[1] = 50 mg/kg, 72 h, dose level Low, time 3 day
[2] = 50 mg/kg, 120 h, dose level Low, time 5 day
[3] = 1200 mg/kg, 72 h, dose level High, time 3 day
[4] = 1200 mg/kg, 120 h, dose level High, time 5 day

Compound: CC[C@H](C)C(=O)O[C@H]1CCC=C2C=C[C@H](C)[C@H](CC[C@@H]3C[C@@H](O)CC(=O)O3)[C@H]21 [MEVASTATIN]
- ABSOLUTE BASOPHIL [1]: 0 CELLS/uL
- ABSOLUTE EOSINOPHIL [1]: 41.33 CELLS/uL
- ABSOLUTE LYMPHOCYTE [1]: 11887.33 CELLS/uL
- ABSOLUTE MONOCYTE [1]: 84.33 CELLS/uL
- ABSOLUTE SEGMENTED NEUTROPHIL [1]: 587 CELLS/uL
- BASOPHIL [1]: 0%
- EOSINOPHIL [1]: 0.33%
- ERYTHROCYTE COUNT [1]: 5.78 x10E6/uL
- HEMATOCRIT [1]: 37.3%
- HEMOGLOBIN [1]: 14.77 G/DL
- LEUKOCYTE COUNT [1]: 12.6 x10E3/uL
- LYMPHOCYTE [1]: 94.33%
- MEAN CORPUSCULAR HEMOGLOBIN [1]: 25.53 pg
- MEAN CORPUSCULAR HEMOGLOBIN CONCENTRATION [1]: 39.6 G/DL
- MEAN CORPUSCULAR VOLUME [1]: 64.47 fL
- MONOCYTE [1]: 0.67%
- NEUTROPHIL [1]: 4.67%
- NUCLEATED RED BLOOD CELLS [1]: 1 /100WBC
- PLATELET COUNT [1]: 1148.33 x10E3/uL
- ALANINE AMINOTRANSFERASE [1]: 48.67 u/L
- ALBUMIN [1]: 4.43 G/DL
- ALKALINE PHOSPHATASE [1]: 400 u/L
- ASPARTATE AMINOTRANSFERASE [1]: 85.67 u/L
- BLOOD UREA NITROGEN [1]: 16 mg/dL
- CARBON DIOXIDE [1]: 25.33 mmol/L
- CHLORIDE [1]: 100.33 MEQ/L
- CHOLESTEROL [1]: 87 mg/dL
- CREATINE PHOSPHOKINASE [1]: 404 u/L
- CREATININE [1]: 0.2 mg/dL
- GLUCOSE [1]: 161 mg/dL
- LACTATE DEHYDROGENASE [1]: 232.67 u/L
- LIPASE [1]: 8.67 u/L
- PHOSPHORUS [1]: 14.2 mg/dL
- POTASSIUM [1]: 6.89 MEQ/L
- SODIUM [1]: 146.63 MEQ/L
- TOTAL BILIRUBIN [1]: 0.33 mg/dL
- TOTAL PROTEIN [1]: 6.2 G/DL
- URIC ACID [1]: 1.93 mg/dL
- ABSOLUTE BASOPHIL [2]: 0 CELLS/uL
- ABSOLUTE EOSINOPHIL [2]: 47 CELLS/uL
- ABSOLUTE LYMPHOCYTE [2]: 15631 CELLS/uL
- ABSOLUTE MONOCYTE [2]: 0 CELLS/uL
- ABSOLUTE SEGMENTED NEUTROPHIL [2]: 1122 CELLS/uL
- BASOPHIL [2]: 0%
- EOSINOPHIL [2]: 0.33%
- ERYTHROCYTE COUNT [2]: 5.52 x10E6/uL
- HEMATOCRIT [2]: 35.63%
- HEMOGLOBIN [2]: 13.8 G/DL
- LEUKOCYTE COUNT [2]: 16.8 x10E3/uL
- LYMPHOCYTE [2]: 93%
- MEAN CORPUSCULAR HEMOGLOBIN [2]: 25.03 pg
- MEAN CORPUSCULAR HEMOGLOBIN CONCENTRATION [2]: 38.77 G/DL
- MEAN CORPUSCULAR VOLUME [2]: 64.6 fL
- MONOCYTE [2]: 0%
- NEUTROPHIL [2]: 6.67%
- NUCLEATED RED BLOOD CELLS [2]: 1 /100WBC
- PLATELET COUNT [2]: 1219.33 x10E3/uL
- ALANINE AMINOTRANSFERASE [2]: 52.67 u/L
- ALBUMIN [2]: 4.5 G/DL
- ALKALINE PHOSPHATASE [2]: 335.67 u/L
- ASPARTATE AMINOTRANSFERASE [2]: 79.67 u/L
- BLOOD UREA NITROGEN [2]: 15.67 mg/dL
- CARBON DIOXIDE [2]: 25.67 mmol/L
- CHLORIDE [2]: 103 MEQ/L
- CHOLESTEROL [2]: 67.33 mg/dL
- CREATINE PHOSPHOKINASE [2]: 212.33 u/L
- CREATININE [2]: 0.19 mg/dL
- GLUCOSE [2]: 153.33 mg/dL
- LACTATE DEHYDROGENASE [2]: 162 u/L
- LIPASE [2]: 9 u/L
- PHOSPHORUS [2]: 12.43 mg/dL
- POTASSIUM [2]: 6.8 MEQ/L
- SODIUM [2]: 146.23 MEQ/L
- TOTAL BILIRUBIN [2]: 0.23 mg/dL
- TOTAL PROTEIN [2]: 6.3 G/DL
- URIC ACID [2]: 1.63 mg/dL
- ABSOLUTE BASOPHIL [3]: 0 CELLS/uL
- ABSOLUTE EOSINOPHIL [3]: 56 CELLS/uL
- ABSOLUTE LYMPHOCYTE [3]: 15055 CELLS/uL
- ABSOLUTE MONOCYTE [3]: 329 CELLS/uL
- ABSOLUTE SEGMENTED NEUTROPHIL [3]: 1226.67 CELLS/uL
- BASOPHIL [3]: 0%
- EOSINOPHIL [3]: 0.33%
- ERYTHROCYTE COUNT [3]: 5.72 x10E6/uL
- HEMATOCRIT [3]: 38.57%
- HEMOGLOBIN [3]: 15.2 G/DL
- LEUKOCYTE COUNT [3]: 16.67 x10E3/uL
- LYMPHOCYTE [3]: 90.33%
- MEAN CORPUSCULAR HEMOGLOBIN [3]: 26.6 pg
- MEAN CORPUSCULAR HEMOGLOBIN CONCENTRATION [3]: 39.43 G/DL
- MEAN CORPUSCULAR VOLUME [3]: 67.5 fL
- MONOCYTE [3]: 2%
- NEUTROPHIL [3]: 7.33%
- NUCLEATED RED BLOOD CELLS [3]: 0.67 /100WBC
- PLATELET COUNT [3]: 1303 x10E3/uL
- ALANINE AMINOTRANSFERASE [3]: 47.67 u/L
- ALBUMIN [3]: 4.63 G/DL
- ALKALINE PHOSPHATASE [3]: 402.33 u/L
- ASPARTATE AMINOTRANSFERASE [3]: 96.67 u/L
- BLOOD UREA NITROGEN [3]: 20 mg/dL
- CARBON DIOXIDE [3]: 29.33 mmol/L
- CHLORIDE [3]: 102.67 MEQ/L
- CHOLESTEROL [3]: 68.33 mg/dL
- CREATINE PHOSPHOKINASE [3]: 235 u/L
- CREATININE [3]: 0.16 mg/dL
- GLUCOSE [3]: 180 mg/dL
- LACTATE DEHYDROGENASE [3]: 194 u/L
- LIPASE [3]: 9 u/L
- PHOSPHORUS [3]: 14.33 mg/dL
- POTASSIUM [3]: 7.63 MEQ/L
- SODIUM [3]: 146.93 MEQ/L
- TOTAL BILIRUBIN [3]: 0.13 mg/dL
- TOTAL PROTEIN [3]: 6.37 G/DL
- URIC ACID [3]: 2.77 mg/dL
- ABSOLUTE BASOPHIL [4]: 0 CELLS/uL
- ABSOLUTE EOSINOPHIL [4]: 0 CELLS/uL
- ABSOLUTE LYMPHOCYTE [4]: 14826.67 CELLS/uL
- ABSOLUTE MONOCYTE [4]: 346.67 CELLS/uL
- ABSOLUTE SEGMENTED NEUTROPHIL [4]: 1426.67 CELLS/uL
- BASOPHIL [4]: 0%
- EOSINOPHIL [4]: 0%
- ERYTHROCYTE COUNT [4]: 5.39 x10E6/uL
- HEMATOCRIT [4]: 33.63%
- HEMOGLOBIN [4]: 13.5 G/DL
- LEUKOCYTE COUNT [4]: 16.6 x10E3/uL
- LYMPHOCYTE [4]: 89.67%
- MEAN CORPUSCULAR HEMOGLOBIN [4]: 25.1 pg
- MEAN CORPUSCULAR HEMOGLOBIN CONCENTRATION [4]: 40.2 G/DL
- MEAN CORPUSCULAR VOLUME [4]: 62.43 fL
- MONOCYTE [4]: 2%
- NEUTROPHIL [4]: 8.33%
- NUCLEATED RED BLOOD CELLS [4]: 0 /100WBC
- PLATELET COUNT [4]: 1567.67 x10E3/uL
- ALANINE AMINOTRANSFERASE [4]: 54.33 u/L
- ALBUMIN [4]: 4.5 G/DL
- ALKALINE PHOSPHATASE [4]: 319 u/L
- ASPARTATE AMINOTRANSFERASE [4]: 97 u/L
- BLOOD UREA NITROGEN [4]: 19.33 mg/dL
- CARBON DIOXIDE [4]: 33 mmol/L
- CHLORIDE [4]: 100.33 MEQ/L
- CHOLESTEROL [4]: 65.33 mg/dL
- CREATINE PHOSPHOKINASE [4]: 319.67 u/L
- CREATININE [4]: 0.19 mg/dL
- GLUCOSE [4]: 136.67 mg/dL
- LACTATE DEHYDROGENASE [4]: 464 u/L
- LIPASE [4]: 8.67 u/L
- PHOSPHORUS [4]: 12.33 mg/dL
- POTASSIUM [4]: 6.95 MEQ/L
- SODIUM [4]: 143.97 MEQ/L
- TOTAL BILIRUBIN [4]: 0.2 mg/dL
- TOTAL PROTEIN [4]: 6.1 G/DL
- URIC ACID [4]: 1.8 mg/dL
